The results in this text go back to EP2518071A1, “Imidazopyridine derivatives as PI3K inhibitors” (Almirall, S.A., priority 2011, dated 2012).

Broadly, the IC50 is the concentration at which inhibition is half-maximal.

In the assay the target is T1, PI3Kδ (PI3Kd) (Homo sapiens, UniProt O00329).
T1 construct: purchased Millipore
The assay can be described thus: PI3K HTRF enzymatic inhibition assay (cell-free, Millipore kit), PI3Kd isoform. The assay is classed as biochemical. As to conditions: recombinant PI3Kd 0.60 nM, PIP2 2 µM, ATP 20 µM, incubation 8 minutes. On the procedure:
Compounds were screened for their ability to inhibit PI3Kα (PI3Ka), PI3Kβ (PI3Kb), PI3Kδ (PI3Kd) and PI3Kγ (PI3Kg) using a cell-free based P13K HTRF™ assay (Millipore, ref. #33-017) All reagents to perform the reactions were prepared according to the manufacturer protocol. All PI3K enzymes were recombinant and were purchased at Millipore.
All four assays were performed according to the following procedure: • 1) Dilution curves of compounds were done in 100% DMSO and dispensed in a reservoir plate, typically from column 2 to 11. Column 1 and 12 were used for the negative controls (100% inhibition using a reference PI3K inhibitor for the four isoforms) and the positive controls (0% inhibition using dimethyl sulfoxide (DMSO) only). • 2) Mix of Phosphoinositide 3-kinase (PI3K) + Phosphatidylinositol 4,5-bisphosphate (PIP2) was diluted in buffer (supplied with the kit) and plated in a medium binding black 96-well plate (Greiner ref. #675076) PI3Ka was diluted at 0.25 nM with PIP2 at 2 µM; PI3Kb was diluted at 0.50 nM with PIP2 at 5 µM; PI3Kd was diluted at 0.60 nM with PIP2 at 2 µM and PI3Kg was diluted at 0.30 nM with PIP2 at 10 µM. These concentrations were final in the assay. • 3) A reservoir plate containing Adenosine TriPhosphate (ATP) diluted in the Millipore kit buffer was prepared for each isoform. The final concentration of ATP in the assay was 10 µM, 15 µM, 20 µM and 10 µM for PI3Ka, PI3Kb, PI3Kd and PI3Kg respectively. • 4) Reactions were started by addition to the PI3K+PIP2 plates of the ATP and compounds simultaneously. Incubation was done for 8 minutes (for all four isoforms) then the reaction was stopped by addition of the Stop solution. The Detection solution was added. These solutions were prepared previously according to the kit specifications. The plates were then incubated overnight at RT before reading the signal in an Envision (PerkinElmer), with excitation at 340 nm and emissions at 620 and 665 nm. • 5) Data obtained from the compound curves were normalized in respect to the negative and positive controls, and then fitted by a 4-parameter log curve in ActivityBase (IDBS) in order to determine their potency.
For orientation: In TR-FRET formats the signal depends on donor and acceptor labels being close together.

T1 sequence (O00329 whole entry): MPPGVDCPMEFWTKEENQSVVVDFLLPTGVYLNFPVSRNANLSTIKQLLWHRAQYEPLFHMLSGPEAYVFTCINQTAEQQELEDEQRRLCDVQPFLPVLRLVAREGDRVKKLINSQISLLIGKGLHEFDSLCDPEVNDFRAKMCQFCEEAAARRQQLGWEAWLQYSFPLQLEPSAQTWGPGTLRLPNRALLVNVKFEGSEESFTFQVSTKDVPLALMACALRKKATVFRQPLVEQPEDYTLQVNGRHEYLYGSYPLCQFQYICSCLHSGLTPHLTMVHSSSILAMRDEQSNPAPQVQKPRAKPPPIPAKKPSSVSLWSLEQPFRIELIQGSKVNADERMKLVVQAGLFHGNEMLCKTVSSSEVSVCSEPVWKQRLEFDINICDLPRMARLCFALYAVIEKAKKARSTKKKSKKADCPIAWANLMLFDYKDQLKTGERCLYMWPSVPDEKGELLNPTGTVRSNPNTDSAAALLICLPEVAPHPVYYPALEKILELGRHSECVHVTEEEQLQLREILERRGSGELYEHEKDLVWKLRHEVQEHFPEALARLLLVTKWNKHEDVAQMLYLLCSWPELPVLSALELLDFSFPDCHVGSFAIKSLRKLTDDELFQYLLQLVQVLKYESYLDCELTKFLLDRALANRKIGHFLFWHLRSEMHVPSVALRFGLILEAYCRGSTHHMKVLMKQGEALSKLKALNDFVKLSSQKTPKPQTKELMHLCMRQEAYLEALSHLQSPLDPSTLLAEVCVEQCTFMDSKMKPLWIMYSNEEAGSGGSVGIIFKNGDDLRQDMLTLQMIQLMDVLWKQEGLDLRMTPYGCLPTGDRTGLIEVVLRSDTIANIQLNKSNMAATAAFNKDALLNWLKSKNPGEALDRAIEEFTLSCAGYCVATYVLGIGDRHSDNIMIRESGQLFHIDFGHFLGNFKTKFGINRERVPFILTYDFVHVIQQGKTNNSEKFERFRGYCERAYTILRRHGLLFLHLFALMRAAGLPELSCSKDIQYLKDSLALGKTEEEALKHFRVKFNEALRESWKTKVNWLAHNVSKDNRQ
T1 sequence (P27986 whole entry partner): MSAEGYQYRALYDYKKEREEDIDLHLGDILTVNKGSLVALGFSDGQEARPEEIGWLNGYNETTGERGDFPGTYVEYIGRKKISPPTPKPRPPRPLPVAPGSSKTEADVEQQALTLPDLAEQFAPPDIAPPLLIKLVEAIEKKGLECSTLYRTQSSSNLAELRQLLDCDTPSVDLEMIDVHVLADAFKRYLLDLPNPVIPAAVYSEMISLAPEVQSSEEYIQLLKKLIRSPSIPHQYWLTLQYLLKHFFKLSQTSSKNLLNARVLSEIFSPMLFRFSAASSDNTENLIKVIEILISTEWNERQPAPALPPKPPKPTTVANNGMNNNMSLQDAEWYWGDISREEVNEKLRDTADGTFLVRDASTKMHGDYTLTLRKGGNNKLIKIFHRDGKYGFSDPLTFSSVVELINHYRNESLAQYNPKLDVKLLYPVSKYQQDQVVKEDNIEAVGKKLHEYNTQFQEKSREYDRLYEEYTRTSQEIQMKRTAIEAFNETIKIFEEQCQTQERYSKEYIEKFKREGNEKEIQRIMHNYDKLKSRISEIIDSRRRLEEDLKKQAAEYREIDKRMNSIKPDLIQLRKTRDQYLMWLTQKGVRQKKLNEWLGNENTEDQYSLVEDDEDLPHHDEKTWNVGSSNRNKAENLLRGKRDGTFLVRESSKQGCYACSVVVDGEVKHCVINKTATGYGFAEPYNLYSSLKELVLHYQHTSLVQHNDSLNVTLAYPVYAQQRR

As for `COc1ccc2nc([C@H](C)Nc3ncnc4[nH]cnc34)n(-c3ccccc3)c2n1` [Example 10, (S)-N-(1-(5-Methoxy-3-phenyl-3H-imidazo[4,5-b]pyridin-2-yl)ethyl)-9H-purin-6-amine], the half-inhibitory concentration (IC50) was found to be 31.6 nM. As to `Cc1ccc2nc([C@H](C)Nc3ncnc(N)c3C#N)n(-c3ccccc3)c2n1` [Example 25, (S)-4-Amino-6-(1-(5-methyl-3-phenyl-3H-imidazo[4,5-b]pyridin-2-yl)ethylamino)pyrimidine-5-carbonitrile], the IC50 turned out to be 52.1 nM. The value for `Cc1ccc2nc([C@H](C)Nc3ccnc4ccnn34)n(-c3ccccc3)c2n1` [Example 26, (S)-N-(1-(5-Methyl-3-phenyl-3H-imidazo[4,5-b]pyridin-2-yl)ethyl)pyrazolo[1,5-a]pyrimidin-7-amine] was 693 nM. Regarding `C[C@H](Nc1ncnc2[nH]cnc12)c1nc2cc(F)cnc2n1-c1ccccc1` [Example 37, N-[(1S)-1-(6-Fluoro-3-phenyl-3H-imidazo[4,5-b]pyridin-2-yl)ethyl]-9H-purin-6-amine], the half-maximal inhibitory concentration (IC50) was found to be 165 nM. The value for `C[C@H](Nc1ncnc2[nH]cnc12)c1nc2cccnc2n1-c1cc(F)cc(F)c1` [Example 12, (S)-N-(1-(3-(3,5-Difluorophenyl)-3H-imidazo[4,5-b]pyridin-2-yl)ethyl)-9H-purin-6-amine] was 188 nM; that for `C[C@H](Nc1ncnc(N)c1C#N)c1nc2cccnc2n1-c1ccccc1` [Example 19, (S)-4-Amino-6-(1-(3-phenyl-3H-imidazo[4,5-b]pyridin-2-yl)ethylamino)pyrimidine-5-carbonitrile] was 132 nM. As for `CC[C@H](Nc1ncnc2[nH]cnc12)c1nc2ccc(OC)nc2n1-c1ccccc1` [Example 14, (S)-N-(1-(5-Methoxy-3-phenyl-3H-imidazo[4,5-b]pyridin-2-yl)propyl)-9H-purin-6-amine], the IC50 is 14.4 nM. The value for `C[C@H](Nc1nc(N)nc2[nH]cnc12)c1nc2cccnc2n1-c1ccccc1` [Example 9, (S)-N6-(1-(3-Phenyl-3H-imidazo[4,5-b]pyridin-2-yl)ethyl)-9H-purine-2,6-diamine] was 85.9 nM. As for `COc1ccc2nc([C@H](C)Nc3ncnc4[nH]cnc34)n(-c3cc(F)cc(F)c3)c2n1` [Example 15, (S)-N-(1-(3-(3,5-Difluorophenyl)-5-methoxy-3H-imidazo[4,5-b]pyridin-2-yl)ethyl)-9H-purin-6-amine], the IC50 amounted to 10.9 nM.

Consider `COc1ccc2nc([C@H](C)Nc3ncnc(N)c3C#N)n(-c3ccccc3)c2n1` [Example 21, (S)-4-Amino-6-(1-(5-methoxy-3-phenyl-3H-imidazo[4,5-b]pyridin-2-yl)ethylamino)pyrimidine-5-carbonitrile], for which the half-maximal inhibitory concentration (IC50) worked out at 22.2 nM. In the case of `C[C@H](Nc1ncnc2[nH]cnc12)c1nc2cccnc2n1-c1ccccc1Cl` [Example 39, N-{(1S)-1-[3-(2-Chlorophenyl)-3H-imidazo[4,5-b]pyridin-2-yl]ethyl}-9H-purin-6-amine] it was 215 nM; in that of `C[C@H](Nc1ncnc2[nH]cnc12)c1nc2ncccc2n1-c1ccccc1` [Example 43, (S)-N-(1-(1-Phenyl-1H-imidazo[4,5-b]pyridin-2-yl)ethyl)-9H-purin-6-amine], 1800 nM.
